pEC50: −log10 of the molar value.
Columns and labels:
[1] = test system: CCRF-CEM cells; test: [3H]leucovorin uptake in CCRF-CEM cells; format: cell-based, human
Description: (§1) Quantitation of folate and antifolate uptake. The method is essentially as follows. Briefly, logarithmically growing (3-5×10^5/ml) CCRF-CEM cells were harvested at room temperature by centrifugation at 1000×g for 5 min. After washing with the appropriate medium, cells were suspended at ≈2×10^7 cells/ml for use in transport studies. […] Anion-free MHS contains 250 mM sucrose and 20 mM HEPES, titrated to pH 7.4 with MgO. […] Uptake was measured as a function of time for 30 min (for rate and extent measurements) or over 5 min (studies requiring initial velocities). […] Uptake was terminated by diluting 100 μL samples into 1 ml of iced 0.9% NaCl. […] The supernatant was aspirated. The cell pellet was washed once with 1 ml iced 0.9% NaCl and centrifuged as above. The washed pellet was solubilized in 1 ml of 0.3% Triton X-100 by incubation for 60 min at 37° C. The solubilized pellet was transferred to a scintillation vial, 10 ml of Liquiscint (National Diagnostics, Atlanta, Ga.) was added and radioactivity was quantitated in a Beckman Model LS6500 liquid scintillation counter. Separate samples at the longest incubation time used in a particular experiment were harvested for HPLC analysis of intracellular contents as above, except that after the second wash the pellets were extracted with 1 ml boiling 0.1 M Na-phosphate, pH 5.5. The extract was clarified by centrifugation and the supernatant was filtered through an MPS-1 filter unit (Amicon) prior to HPLC analysis.

[2] = test system: CCRF-CEM cells; test: cells; format: cell-based, human; conditions: read-out: EC50 for growth inhibition
Description: Inhibition of growth of human cell lines in vitro. Inhibition of growth of CCRF-CEM in continuous and intermittent drug exposures was measured. EC50 values were determined from plots of percent control growth versus the logarithm of drug concentration.
[…]; n=2). […]; n=2). Values presented are average±S.D. for n>2 and average±range for n=2. […] […]; EC50 data may therefore underestimate the biological potency.

[3] = test system: CCRF-CEM cells; test: Effect of protein kinase inhibitors on [3H]MTX uptake; format: cell-based, human
From the text: To determine whether protein phosphorylation is involved in the mechanism of Z potentiation, we began studies with a series of protein kinase (PK) inhibitors (PKI).

[4] = test system: CCRF-CEM cells; test: [3H]MTX uptake (initial velocity and 30 min accumulation) in CCRF-CEM cells; format: cell-based, human
Description: as §1

[5] = test system: CCRF-CEM; conditions: 10 μg/ml, within 5 min; cited from earlier work
[6] = test system: CCRF-CEM cells; test: Subcellular localization of [3H]MTX; format: cell-based, human; conditions: 30 min uptake of 2 μM [3H]MTX; 2 μM TMTX, 500 μM Z
Description: Subcellular fractionation. […] Cells were diluted 9-fold in iced 0.9% NaCl, centrifuged at 1000×g for 5 min and washed once with 40 ml iced saline. All subsequent steps were performed at 4°. Cells were homogenized as previously described, except that hypotonic buffer at 20-fold the packed cell volume was used, and the homogenate was centrifuged for 6 min at 1000×g to yield a nuclear pellet (also containing unlysed cells and large debris) and a post-nuclear supernatant (PNS). Based on controls using nonradiolabeled cells, >91% of the cells would be lysed during homogenization. The PNS was centrifuged at 17,000×g to yield a combined mitochondria-lysosome pellet. The resulting supernatant was centrifuged at 100,000×g for 60 min to yield the 100,000×g supernatant (cytosol). The 100,000×g pellet (microsomes) and the combined mitochondria-lysosome pellet were each washed in isotonic buffer and centrifuged at their respective g-forces. All pellets were solubilized in 0.3% Triton X-100 by incubating at 37° for 1 hr; 1 ml was transferred to a scintillation vial for quantitation. Triton X-100 was added to the cytosol to a final concentration of 0.3% and a 1 ml aliquot was quantitated. Radioactivity in each fraction was corrected for a blank containing 0.3% Triton X-100.

[7] = biological target: T1, reduced folate carrier (RFC) (Homo sapiens, UniProt P41440); test: Kinetic constants for influx of [3H]MTX by CCRF-CEM cells; format: cell-based; conditions: influx of [3H]MTX; pre-incubation with solvent (MTX alone), 1 μM TMTX, or 1 μM TMTX + 0.5 mM Z
T1 construct: endogenous in cells; host or cells: CCRF-CEM (parental)
T1 sequence (P41440 1-591): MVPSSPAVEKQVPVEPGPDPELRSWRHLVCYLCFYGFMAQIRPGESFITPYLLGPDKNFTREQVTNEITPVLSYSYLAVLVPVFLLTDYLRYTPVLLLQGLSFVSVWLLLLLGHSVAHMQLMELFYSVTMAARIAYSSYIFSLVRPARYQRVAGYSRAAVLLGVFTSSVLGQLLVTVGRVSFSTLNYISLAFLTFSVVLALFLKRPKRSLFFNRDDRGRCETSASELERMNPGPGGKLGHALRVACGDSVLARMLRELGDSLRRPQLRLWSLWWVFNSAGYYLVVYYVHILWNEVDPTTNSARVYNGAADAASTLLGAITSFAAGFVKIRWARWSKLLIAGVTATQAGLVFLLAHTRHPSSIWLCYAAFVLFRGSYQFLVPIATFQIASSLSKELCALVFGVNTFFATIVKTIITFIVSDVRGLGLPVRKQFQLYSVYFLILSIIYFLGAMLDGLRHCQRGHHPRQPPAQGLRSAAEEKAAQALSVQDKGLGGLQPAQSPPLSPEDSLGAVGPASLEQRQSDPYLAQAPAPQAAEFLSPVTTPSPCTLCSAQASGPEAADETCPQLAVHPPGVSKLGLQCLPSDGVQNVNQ
Description: as §1
Inhibition of the vi of uptake was measured after pre-incubation of CCRF-CEM cells either with TMTX alone (measuring inhibition at the RFC) or with TMTX+Z (measuring inhibition during Z potentiation). […] All studies were carried out in standard transport medium. Inhibitory potency was measured in two series of experiments and AMT was included in each series as an internal control. Values are average±range of two determinations. […] Values are average±range for duplicate determinations.

[8] = 1 μM [3H]LV, 10 min preincubation, 1 μM TMTX, 0.5 mM Z

Compound: Cc1ccc2nc(N)[nH]c(=O)c2c1Sc1ccncc1 [AG337]
- Effect on potentiation of LV uptake induced by TMTX+Z ([1]; 20 μM): completely block
- Potentiation of [3H]LV uptake ([1]; 10 min preincubation at 2 or 20 μM, presence or absence of Z): does not potentiate
- pEC50 [2]: 6.22

Compound: O=c1c(O)c(-c2ccc(O)c(O)c2)oc2cc(O)cc(O)c12 [Quercetin, quercetin]
- Decrease of 30 min accumulation +TMTX+Z ([3]; 50 μM): 21%
- Decrease of initial influx rate ([3]; 50 μM): 43%
- Decrease of 30 min accumulation +TMTX+Z ([3]; 100 μM): 38%
- Decrease of initial influx rate ([3]; 100 μM): 55%
- Increase of uptake +TMTX at 30 min ([3]; 50 or 100 μM): 10-12%

Compound: C[C@@H]1C[C@@H]([C@H](O)CC2CC(=O)NC(=O)C2)C(=O)[C@@H](C)C1 [CHX, cycloheximide]
- Potentiation of [3H]MTX influx by 0.5 mM Z after protein synthesis inhibition ([4]; 10 μg/ml CHX preincubated 10 min, Z added for last 5 min): potentiation still occurred
- Inhibition of protein synthesis [5]: completely inhibited

Compound: COc1cc(NCc2ccc3nc(N)nc(N)c3c2C)cc(OC)c1OC [TMTX, trimetrexate]
- Extent of [3H]MTX accumulation at 30 min relative to absence of TMTX ([4]; 10 min preincubation with 2 μM TMTX, no Z): 90-100%
- Increase in 30 min accumulation (extent) of [3H]LV [1, 8]: 1.6 fold
- Increase in vi of [3H]LV uptake [1, 8]: 1.4 fold
- Relative radioactivity, Cytosol [6]: 88.9%
- Relative radioactivity, Microsomes [6]: 0.2%
- Relative radioactivity, Mito-Lysosomes [6]: 0.4%
- Relative radioactivity, Nuclear Pellet [6]: 10.5%
- Total [3H]MTX recovered in all four fractions [6]: 338.4 pmol
- [3H]MTX/fraction, Cytosol [6]: 300.3 pmol
- [3H]MTX/fraction, Microsomes [6]: 0.7 pmol
- [3H]MTX/fraction, Mito-Lysosomes [6]: 1.3 pmol
- [3H]MTX/fraction, Nuclear Pellet [6]: 35.5 pmol
- Kt [7]: 5.3 ± 0.6 µM
- Vmax [7]: 7.2 ± 0.6 pmol/min/10^7 cells
- Vmax/Kt [7]: 1.36

Source: patent US7687473B2, “5-amino-4-imidazolecarboxamide riboside and its nucleobase as potentiators of antifolate transport and metabolism” (Health Research, Inc., priority 2005, dated 2010)
